Assay results from ChEMBL document CHEMBL1142867, “Antiviral activity of triazine analogues of 1-(S)-[3-hydroxy-2-(phosphonomethoxy)propyl]cytosine (cidofovir) and related compounds” (J Med Chem, 2007).
≈ marks a conversion by molar mass, not a printed value.

Legend:
[1] = Cytotoxicity against Vero cells assessed as alteration in cell morphology; format: cell-based; conditions: chlorocebus sabaeus
[2] = Cytotoxicity against E6SM cells assessed as alteration in cell morphology; format: cell-based; conditions: human
[3] = test system: Human immunodeficiency virus 2; format: functional, organism-based; conditions: Human immunodeficiency virus 2, ROD, CCRF-CEM
[4] = test system: Human alphaherpesvirus 1; format: functional, organism-based; conditions: Human alphaherpesvirus 1, KOS, HEL
[5] = test system: Human alphaherpesvirus 2; format: functional, organism-based; conditions: Human alphaherpesvirus 2, G, HEL
[6] = test system: Human immunodeficiency virus 1; format: functional, organism-based; conditions: Human immunodeficiency virus 1, 3B, CCRF-CEM
[7] = test system: Respiratory syncytial virus; format: functional, organism-based; conditions: human respiratory syncytial virus, Long, HeLa
[8] = test system: Human betaherpesvirus 5; format: functional, organism-based; conditions: Human betaherpesvirus 5, Davis, HEL
[9] = test system: Moloney murine sarcoma virus; experiment: Antiviral activity against MSV in mouse C3H cells assessed as inhibition of virus-induced transformation after 6 days; format: functional, organism-based; conditions: 144 h
[10] = test system: Vesicular stomatitis virus; experiment: microbe, parasite or virus in culture; conditions: HeLa
[11] = test system: Human alphaherpesvirus 3; experiment: Antiviral activity against VZV OKA in HEL cells assessed as inhibition of plaque formation; format: functional, organism-based; conditions: Human alphaherpesvirus 3, OKA
[12] = test system: Coxsackievirus B4; format: functional, organism-based; conditions: Enterovirus B, Vero
[13] = test system: Human betaherpesvirus 5; format: functional, organism-based; conditions: Human betaherpesvirus 5, AD169, HEL
[14] = test system: HEL; experiment: Cytotoxicity against HEL cells assessed as inhibition of cell growth after 3 days; format: cell-based; conditions: human, 72 h
[15] = test system: Vaccinia virus; format: functional, organism-based; conditions: Orthopoxvirus vaccinia, Lederle, HEL
[16] = test system: Human respirovirus 3; format: functional, organism-based; conditions: Human respirovirus 3, Vero
[17] = Cytotoxicity against HEL cells assessed as alteration in cell morphology after 3 days; format: cell-based; conditions: human, read-out: Activity
[18] = test system: Human alphaherpesvirus 3; experiment: Antiviral activity against TK- VZV 07-1 in HEL cells assessed as inhibition of plaque formation; format: functional, organism-based; conditions: Human alphaherpesvirus 3, 07-1, HEL
[19] = test system: Mammalian orthoreovirus 1; format: functional, organism-based; conditions: Mammalian orthoreovirus 1, Vero
[20] = Cytotoxicity against HeLa cells assessed as alteration in cell morphology; format: cell-based; conditions: human
[21] = test system: Sindbis virus; format: functional, organism-based; conditions: Vero
[22] = Cytotoxicity against CEM cells assessed as reduction of cell growth; format: cell-based; conditions: human, CEM (CCRF-CEM) cells
[23] = test system: Punta Toro virus; format: functional, organism-based; conditions: Vero
[24] = Cytotoxicity against C3H cells assessed as alteration in cell morphology; format: cell-based; conditions: mouse
[25] = test system: Vesicular stomatitis virus; experiment: microbe, parasite or virus in culture; conditions: E6SM
[26] = test system: Coxsackievirus B4; format: functional, organism-based; conditions: Enterovirus B, HeLa
[27] = test system: Human alphaherpesvirus 1; format: functional, organism-based; conditions: Human alphaherpesvirus 1, KOS, HEL; remark: listed apart in the source
[28] = Cytotoxicity against HSB2 cells assessed as alteration in cell morphology; format: cell-based, CCRF-HSB-2; conditions: human, read-out: Activity
[29] = test system: Human adenovirus 2; format: functional, organism-based; conditions: Human mastadenovirus C, HEL
[30] = test system: Human alphaherpesvirus 2; format: functional, organism-based; conditions: Human alphaherpesvirus 2, Lyons, HEL

Compound | MCC [1] [µg/mL] | MCC [2] [µg/mL] | EC50 [3] [µg/mL] | EC50 [4] [µg/mL] | EC50 [5] [µg/mL] | EC50 [6] [µg/mL] | EC50 [7] [µg/mL] | EC50 [8] [µg/mL] | EC50 [9] [µg/mL] | EC50 [10] [µg/mL] | EC50 [12] [µg/mL] | Activity [14] | EC50 [16] [µg/mL] | MCC at 72 h [17] [µg/mL] | EC50 [19] [µg/mL] | MCC [20] [µg/mL] | EC50 [21] [µg/mL] | EC50 [23] [µg/mL] | EC50 [26] [µg/mL] | EC50 [27] [µg/mL] | also measured
C[C@H](Cn1cnc(N)nc1=O)OCP(=O)(O)O | > 100 | > 100 | > 100 | > 100 | > 100 | > 100 | > 100 | > 100 | > 100 | > 100 | > 100 | > 50 µg/mL | > 100 | > 50 | > 100 | > 100 | > 100 | > 100 | > 100 |  | EC50 [11]: > 100 µg/mL; EC50 [13]: > 100 µg/mL; EC50 [15]: > 100 µg/mL; EC50 [18]: > 100 µg/mL; CC50 [22]: > 100 µg/mL; MCC [24]: > 100 µg/mL; EC50 [25]: > 100 µg/mL
Nc1ncnc2c1ncn2C[C@H](O)CO [(S)-DHPA] | > 400 | > 400 | > 100 |  |  | > 100 | > 400 |  | > 100 | 400 (≈ 1910 µM) | 240 (≈ 1150 µM) |  | 48 (≈ 229 µM) |  | 48 (≈ 229 µM) | > 400 | 240 (≈ 1150 µM) | 48 (≈ 229 µM) | > 400 |  | MCC [24]: > 100 µg/mL
Nc1nc2c(ncn2COCCO)c(=O)[nH]1 [ACYCLOVIR] |  |  |  | 0.015 (≈ 0.0666 µM) | 0.048 (≈ 0.213 µM) |  |  |  |  |  |  | 173.5 µg/mL |  | > 100 |  |  |  |  |  | > 20 | 
O=c1[nH]c(=O)n([C@H]2C[C@H](O)[C@@H](CO)O2)cc1/C=C/Br [BRIVUDINE] | > 400 | > 400 | > 100 | 0.0025 (≈ 0.0075 µM) |  | > 100 | > 400 |  | > 100 | > 400 | > 400 | >= 100 ug ml-1 | > 400 | > 100 | > 400 | > 400 | > 400 | > 400 | > 400 | > 20 | EC50 [11]: 0.0069 µg/mL (≈ 0.0207 µM); EC50 [18]: ≥ 122 µg/mL; MCC [24]: > 100 µg/mL; EC50 [25]: > 400 µg/mL
Nc1ccn(C[C@@H](CO)OCP(=O)(O)O)c(=O)n1.O.O [CIDOFOVIR] |  |  |  | 0.09 | 0.35 |  |  | 0.3 |  |  |  | 60.9 µg/mL |  | > 100 |  |  |  |  |  | 0.38 | EC50 [11]: 0.077 µg/mL; EC50 [13]: 0.2 µg/mL; MCC [28]: 37 µg/mL; EC50 [15]: 2.6 µg/mL; EC50 [18]: 0.073 µg/mL; EC50 [29]: 1.53 µg/mL; EC50 [30]: 0.43 µg/mL
Nc1nc(O)c2ncn(COC(CO)CO)c2n1 [GANCICLOVIR] |  |  |  |  | 0.0096 (≈ 0.0376 µM) |  |  | 1.5 (≈ 5.88 µM) |  |  |  | 83.6 µg/mL |  | > 100 |  |  |  |  |  | 0.91 (≈ 3.57 µM) | 
NC(=O)c1ncn([C@@H]2O[C@H](CO)[C@@H](O)[C@H]2O)n1 [RIBAVIRIN] | > 400 | > 400 |  |  |  |  | 16 (≈ 65.5 µM) |  |  | 80 (≈ 328 µM) | 240 (≈ 983 µM) |  | 48 (≈ 197 µM) |  | 48 (≈ 197 µM) | > 400 | 240 (≈ 983 µM) | 48 (≈ 197 µM) | 48 (≈ 197 µM) |  | EC50 [25]: 240 µg/mL (≈ 983 µM)
